# How the values were obtained:
# TK-10 = assay: NCI-60 single-dose screen; assay type: cell-based; details: Homo sapiens, single dose 10 µM, '-' = no inhibition, read-out: % Growth Inhibition
# Outline: (§1)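 Compounds tested once at 10 μM across the NCI-60 panel of 60 human cancer cell lines spanning nine tumour types (leukemia, lung, colon, CNS, melanoma, ovarian, renal, prostate, breast), run by the NCI Developmental Therapeutics Program.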
# SF-268 = assay: NCI-60 single-dose screen; assay type: cell-based; details: Homo sapiens, single dose 10 µM, '-' = no inhibition, read-out: % Growth Inhibition
# Outline: as §1
# NCI-H23 = assay: NCI-60 single-dose screen; assay type: cell-based; details: Homo sapiens, single dose 10 µM, '-' = no inhibition, read-out: % Growth Inhibition
# Outline: as §1
# DU-145 = assay: NCI-60 single-dose screen; assay type: cell-based; details: Homo sapiens, single dose 10 µM, '-' = no inhibition, read-out: % Growth Inhibition
# Outline: as §1
# HT29 = assay: NCI-60 single-dose screen; assay type: cell-based; details: Homo sapiens, HT-29, single dose 10 µM, '-' = no inhibition, read-out: % Growth Inhibition
# Outline: as §1
# 786-0 = assay: NCI-60 single-dose screen; assay type: cell-based; details: Homo sapiens, single dose 10 µM, '-' = no inhibition, read-out: % Growth Inhibition
# Outline: as §1
# MOLT-4 = assay: NCI-60 single-dose screen; assay type: cell-based; details: Homo sapiens, single dose 10 µM, '-' = no inhibition, read-out: % Growth Inhibition
# Outline: as §1
# SK-MEL-5 = assay: NCI-60 single-dose screen; assay type: cell-based; details: Homo sapiens, single dose 10 µM, '-' = no inhibition, read-out: % Growth Inhibition
# Outline: as §1
# NCI-H322M = assay: NCI-60 single-dose screen; assay type: cell-based; details: Homo sapiens, single dose 10 µM, '-' = no inhibition, read-out: % Growth Inhibition
# Outline: as §1
# SW-620 = assay: NCI-60 single-dose screen; assay type: cell-based; details: Homo sapiens, single dose 10 µM, '-' = no inhibition, read-out: % Growth Inhibition
# Outline: as §1
# KM12 = assay: NCI-60 single-dose screen; assay type: cell-based; details: Homo sapiens, single dose 10 µM, '-' = no inhibition, read-out: % Growth Inhibition
# Outline: as §1
# SK-OV-3 = assay: NCI-60 single-dose screen; assay type: cell-based; details: Homo sapiens, single dose 10 µM, '-' = no inhibition, read-out: % Growth Inhibition
# Outline: as §1
# HCC-2998 = assay: NCI-60 single-dose screen; assay type: cell-based; details: Homo sapiens, single dose 10 µM, '-' = no inhibition, read-out: % Growth Inhibition
# Outline: as §1
# SF-295 = assay: NCI-60 single-dose screen; assay type: cell-based; details: Homo sapiens, single dose 10 µM, '-' = no inhibition, read-out: % Growth Inhibition
# Outline: as §1
# HOP-62 = assay: NCI-60 single-dose screen; assay type: cell-based; details: Homo sapiens, single dose 10 µM, '-' = no inhibition, read-out: % Growth Inhibition
# Outline: as §1
# NCI-H522 = assay: NCI-60 single-dose screen; assay type: cell-based; details: Homo sapiens, single dose 10 µM, '-' = no inhibition, read-out: % Growth Inhibition
# Outline: as §1
# SK-MEL-28 = assay: NCI-60 single-dose screen; assay type: cell-based; details: Homo sapiens, single dose 10 µM, '-' = no inhibition, read-out: % Growth Inhibition
# Outline: as §1
# OVCAR-5 = assay: NCI-60 single-dose screen; assay type: cell-based; details: Homo sapiens, single dose 10 µM, '-' = no inhibition, read-out: % Growth Inhibition
# Outline: as §1
# ACHN 1 = assay: NCI-60 single-dose screen; assay type: cell-based; details: Homo sapiens, single dose 10 µM, '-' = no inhibition, read-out: % Growth Inhibition
# Outline: as §1
# CCRF-CEM = assay: NCI-60 single-dose screen; assay type: cell-based; details: Homo sapiens, single dose 10 µM, '-' = no inhibition, read-out: % Growth Inhibition
# Outline: as §1
# MDA-MB-468 = assay: NCI-60 single-dose screen; assay type: cell-based; details: Homo sapiens, single dose 10 µM, '-' = no inhibition, read-out: % Growth Inhibition
# Outline: as §1
# T-47D = assay: NCI-60 single-dose screen; assay type: cell-based; details: Homo sapiens, T47D, single dose 10 µM, '-' = no inhibition, read-out: % Growth Inhibition
# Outline: as §1
# CAKI-1 = assay: NCI-60 single-dose screen; assay type: cell-based; details: Homo sapiens, single dose 10 µM, '-' = no inhibition, read-out: % Growth Inhibition
# Outline: as §1
# U251 = assay: NCI-60 single-dose screen; assay type: cell-based; details: Homo sapiens, U-251, single dose 10 µM, '-' = no inhibition, read-out: % Growth Inhibition
# Outline: as §1
# A498 = assay: NCI-60 single-dose screen; assay type: cell-based; details: Homo sapiens, single dose 10 µM, '-' = no inhibition, read-out: % Growth Inhibition
# Outline: as §1
# M14 = assay: NCI-60 single-dose screen; assay type: cell-based; details: Homo sapiens, single dose 10 µM, '-' = no inhibition, read-out: % Growth Inhibition
# Outline: as §1
# SK-MEL-2 = assay: NCI-60 single-dose screen; assay type: cell-based; details: Homo sapiens, single dose 10 µM, '-' = no inhibition, read-out: % Growth Inhibition
# Outline: as §1
# OVCAR-4 = assay: NCI-60 single-dose screen; assay type: cell-based; details: Homo sapiens, single dose 10 µM, '-' = no inhibition, read-out: % Growth Inhibition
# Outline: as §1
# LOX IMVI = assay: NCI-60 single-dose screen; assay type: cell-based; details: Homo sapiens, single dose 10 µM, '-' = no inhibition, read-out: % Growth Inhibition
# Outline: as §1
# HCT-15 = assay: NCI-60 single-dose screen; assay type: cell-based; details: Homo sapiens, single dose 10 µM, '-' = no inhibition, read-out: % Growth Inhibition
# Outline: as §1
# UACC-62 = assay: NCI-60 single-dose screen; assay type: cell-based; details: Homo sapiens, single dose 10 µM, '-' = no inhibition, read-out: % Growth Inhibition
# Outline: as §1
# HL-60(TB) = assay: NCI-60 single-dose screen; assay type: cell-based; details: Homo sapiens, single dose 10 µM, '-' = no inhibition, read-out: % Growth Inhibition
# K-562 = assay: NCI-60 single-dose screen; assay type: cell-based; details: Homo sapiens, K562, single dose 10 µM, '-' = no inhibition, read-out: % Growth Inhibition
# Outline: as §1
# NCI-H460 = assay: NCI-60 single-dose screen; assay type: cell-based; details: Homo sapiens, single dose 10 µM, '-' = no inhibition, read-out: % Growth Inhibition
# Outline: as §1
SMILES,melting point,inhibition at 10 µM (TK-10),inhibition at 10 µM (SF-268),inhibition at 10 µM (NCI-H23),inhibition at 10 µM (DU-145),inhibition at 10 µM (HT29),inhibition at 10 µM (786-0),inhibition at 10 µM (MOLT-4),inhibition at 10 µM (SK-MEL-5),inhibition at 10 µM (NCI-H322M),inhibition at 10 µM (SW-620),inhibition at 10 µM (KM12),inhibition at 10 µM (SK-OV-3),inhibition at 10 µM (HCC-2998),inhibition at 10 µM (SF-295),inhibition at 10 µM (HOP-62),inhibition at 10 µM (NCI-H522),inhibition at 10 µM (SK-MEL-28),inhibition at 10 µM (OVCAR-5),inhibition at 10 µM (ACHN 1),other results
"COc1ccc(-c2cc(-c3ccc(Cl)cc3)nc(SC(C)C)n2)cc1 [Compound 12, 4-(4-Chlorophenyl)-2-(isopropylthio)-6-(4-methoxyphenyl)pyrimidine]",198 to 201 °C,< 0%,< 0%,10.7%,14.7%,29.2%,7.48%,29.9%,17.9%,4.22%,5.57%,9.45%,< 0%,1.06%,4.52%,< 0%,21.6%,< 0%,< 0%,< 0%,inhibition at 10 µM (CCRF-CEM): 24.1%; inhibition at 10 µM (MDA-MB-468): 35.1%; inhibition at 10 µM (T-47D): 40.4%; inhibition at 10 µM (CAKI-1): 14.1%; inhibition at 10 µM (U251): 7.59%; inhibition at 10 µM (A498): < 0%; inhibition at 10 µM (M14): 8.46%; inhibition at 10 µM (SK-MEL-2): 19.5%; inhibition at 10 µM (OVCAR-4): 11.8%; inhibition at 10 µM (LOX IMVI): 13.6%; inhibition at 10 µM (HCT-15): 38.7%; inhibition at 10 µM (UACC-62): 19.1%; inhibition at 10 µM (HL-60(TB)): 32.6%; inhibition at 10 µM (K-562): 30.9%; inhibition at 10 µM (NCI-H460): 7.21%
"C=CCSc1nc(-c2ccc(OC)cc2)cc(-c2cccc(OC)c2)n1 [Compound 20, 2-(Allylthio)-6-(3-methoxyphenyl)-4-(4-methoxyphenyl)pyrimidine]",258 to 260 °C,< 0%,< 0%,1.43%,< 0%,8.08%,< 0%,12.5%,1.41%,< 0%,< 0%,< 0%,< 0%,2.37%,3.19%,< 0%,8.49%,< 0%,< 0%,< 0%,inhibition at 10 µM (CCRF-CEM): 3.61%; inhibition at 10 µM (MDA-MB-468): 1.99%; inhibition at 10 µM (T-47D): 21.5%; inhibition at 10 µM (CAKI-1): 7.19%; inhibition at 10 µM (U251): < 0%; inhibition at 10 µM (A498): < 0%; inhibition at 10 µM (M14): 4.9%; inhibition at 10 µM (SK-MEL-2): < 0%; inhibition at 10 µM (OVCAR-4): 5.65%; inhibition at 10 µM (LOX IMVI): 7.36%; inhibition at 10 µM (HCT-15): 5.58%; inhibition at 10 µM (UACC-62): 18.8%; inhibition at 10 µM (HL-60(TB)): 31.3%; inhibition at 10 µM (K-562): 11.8%; inhibition at 10 µM (NCI-H460): < 0%
